Earlier results in patent US20100209419A1, “Method and formulation for treating adverse biological conditions” (priority 2008, published 2010).

Conditions: at 79° F.

water solubility: 34 % w/v
SMILES: CS(C)(=O)=O [MSM, methylsulfonylmethane]
